Patent publication EP2241565A1, “Aurora kinase inhibitors compounds” (Universität Leipzig, priority 2009, dated 2010)

What was measured:
hTERT-RPE1 cells = assay: Cilia disassembly assay; type: cell-based; conditions: pretreatment 1-2 µM, serum stimulation after 48 h starvation
Method: Cilia assembly and disassembly assays were performed as described in Pugacheva et al., Cell 2007, 129, 1351-1363. […] For analysis of cilia disassembly, cilia were assembled by 48 h starvation in Opti-MEM, and disassembled by incubation in DMEM-10% serum. Cells were fixed after 2 and 4 h. […] To visualize the centrosomes and the cilia, fixed cells were immunostained with anti-γ-tubulin (Sigma GTU88) and anti-acetylated-tubulin (Sigma), and DNA was stained with Hoechst.

HeLa cells [1] = assay: Fixed cell analysis of mitotic phenotypes (fluorescence / immunofluorescence); type: cell-based, human; conditions: 2 µM, 24 h
Method: For fixed cell analysis, HeLa or H2B-GFP/mRFP-αTubulin HeLa cells were grown on glass coverslips and treated as described above. Cells were fixed in ice cold methanol and mounted in Mowiol. Alternatively, non fluorescent HeLa were treated and subjected to immunofluorescence with anti-tubulin antibodies (Sigma, DM1A) and Hoechst to stain the DNA. Cells were observed on a Leica DM16000B microscope with the HCX PL APO CS 63x 1.4 objective. Images were taken with a Leica DFC 350FX camera, controlled by Leica Application Suit (LAS-AF 6000) software and processed with Adobe Photoshop.
To get a better idea about the defects causing cell division failure in cells treated with (C), we examined fixed cells to better visualize the chromosomes and the microtubules. […] In parallel, standard HeLa cells were treated in the same way. The cells were fixed and processed for immunofluorescence with anti-tubulin antibodies to visualize the microtubules and Hoechst to stain the DNA.

HeLa cells [2] = assay: Flow cytometry (FACS) DNA content / cell cycle profile; type: cell-based, human; conditions: 24 h
Method: Adherent HeLa cells were routinely passaged and maintained in D-MEM medium supplemented with 10% Fetal Bovine Serum (FBS), 1% Penicillin/Streptomycin and 2 mM L-Glutamine. The cells were cultured at 37 °C; 5% CO2. hTERT-RPE1 cells were grown in DMEM with 10% fetal bovine serum. HeLa cells constitutively expressing green fluorescent protein-conjugated Histone H2B and mRed fluorescent protein-conjugated α-tubulin were maintained in D-MEM medium supplemented with 10% Fetal Bovine Serum (FBS), 1% Penicillin/Streptomycin, 2 mM L-Glutamine and 0.5 µg/mL Puromycin and cultured at 37 °C; 5% CO2.
After treatment, FACS analysis was performed on a BD FACSCanto™ Flow Cytometer (Cat.No. 335860 BD Biosciences) using FACSDiva Software. Cells were trypsinized, washed wish PBS and fixed overnight in EtOH (-20°C). After washing with PBS, cells were stained with a propidium iodide solution (PI; 15 µg/mL)/ RNase A (30 µg/mL) for 30 min at 37 °C. RNase was added to avoid signals caused by the binding of PI to RNA.
We first examined by flow cytometry the cell cycle profiles of HeLa cells incubated in medium containing increasing concentrations of any of (A) or (C) for 24 h.

[3] = system: histone H3 phosphorylation on Ser 10; assay: Western Blot analysis of histone H3 phosphorylation in mitotic cells; type: cell-based, human; conditions: mitotic HeLa cells synchronized with nocodazole, treated 20 h, any of the concentrations tested
Method: For Western Blot analysis of HH3 phosphorylation levels in mitosis HeLa cells were arrested with 2 mM thymidine for 18 h, released into fresh medium for 6 h, and blocked with 2 µM nocodazole for 16 h. DMSO or the different compounds were added 1 h after thymidine release. Mitotic cells were shaken off and lysed in 50 mM Tris pH 6,8- 2% SDS. Samples were sonicated and boiled. 30 µg protein extract (as determined by Bradford assay, Bio-Rad protein assay) was loaded on SDS-PAGE, transferred to a nitrocellulose membrane and blotted with anti-phospho HH3 (Upstate), anti-Aurora A and anti-tubulin antibodies (Sigma, DM1A).

[4] = system: H2B-GFP/mRFP-αTubulin HeLa cells; assay: Time-lapse video microscopy of live cells; type: cell-based, human; conditions: 2 µM
Method: Upon treatment, living cells were added to a humidified chamber at 37 °C with 5% CO2 attached to a Carl Zeiss microscope (SN:3834000366) equipped with a Hamamatsu EM-CCD digital camera, controlled by AxioVision 4.6 software. Cells were imaged every 3 or 4.5 min (depending on the number of fields filmed) for over 16 h-24 h. Images were taken with the AxioCam MRm 426205 objective and processed using AxioVision software.
The increase in the proportion of cells with more than 2n DNA content could be due to several causes: several cycles of DNA replication or cytokinesis errors as shown for cells treated with other Aurora inhibitors. To determine the primary cause for the phenotype produced by (C) and examine whether (A) may interfere with mitosis, we examined live cells by time-lapse video microscopy. To visualize DNA and microtubules we used a HeLa stable cell line expressing H2B-GFP and mRFP-αTubulin. […] The resulting time-lapse images were used to determine the following parameters: (1) the percentage of cell death among non dividing cells (Figure 4A), (2) the percentage of cells entering mitosis (Figure 4B), (3) the outcome of mitosis: normal division (cell division), return to interphase without chromatin segregation and without dividing (no division), cytokinesis failure (division errors), cell death without resolving mitosis (cell death) (Figure 4C), and (4) the length of time spent in mitosis (TIM), defined as the interval between DNA condensation and anaphase resolution (Figure 4D).

COc1cc2c(Nc3ccc(NC(=O)c4ccccc4)cc3)ncnc2cc1OCCCN1CCOCC1 [ZM1, reference compound]
cilia disassembly (hTERT-RPE1 cells): did not have any effect | mitotic phenotype of fixed cells (HeLa cells [1]): strong increase of the number of mitotic cells showing chromosome alignment defects in metaphase | % of cells 2<n<4 (HeLa cells [2]; 2µM, HeLa cells): 2.8% | % of cells 2n (HeLa cells [2]; 2µM, HeLa cells): 1.2% | % of cells 4n (HeLa cells [2]; 2µM, HeLa cells): 51.1% | % of cells <2n (HeLa cells [2]; 2µM, HeLa cells): 3.0% | % of cells >4n (HeLa cells [2]; 2µM, HeLa cells): 43.5% | effect on DNA content / distribution of cells in the cell cycle stages (HeLa cells [2]; ZM1 2 µM, (A) and (C) increasing concentrations): increased the proportion of cells with 4n and 8n DNA content | HH3-Ser10 phosphorylation [3]: strongly reduced | time spent in mitosis (TIM) [4]: 306 min | number of cells entering mitosis ([4]; 16 h-24 h): decreased by half | cells that de-condensed their DNA and went back to interphase without chromosome segregation ([4]; of cells in mitosis): 76%
